Measured values published in publication PMC6152226, “Composition and Antioxidant, Antienzymatic and Antimicrobial Activities of Volatile Molecules from Spanish Salvia lavandulifolia (Vahl) Essential Oils” (Molecules : A Journal of Synthetic Chemistry and Natural …, 2017).
≈ marks a conversion by molar mass, not a printed value. Where two headings read alike, the source gives them in different places.

Key:
DPPH radical method = settings: individual compounds; maximum assay concentration 100 mM
Procedure: (§1) Five antioxidant methods were performed with SlEOs and their main individual compounds in triplicate. In the oxygen radical absorbance capacity (ORAC) assay, peroxyl radicals are produced by 2,2′-Azobis(2-methylpropionamidine) dihydrochloride (AAPH), which reacts with fluorescein giving a non-fluorescent compound [61]. The antioxidants are able to scavenge these peroxyl radicals. Trolox was used as the reference antioxidant. The 2,2-diphenyl-1-picrylhydrazyl (DPPH) and 2,2′-azino-bis(3-ethylbenzothiazoline-6-sulphonic acid) (ABTS) methods measure the bleaching produced by the reduction of the coloured DPPH and ABTS radicals. Trolox was used as the reference antioxidant. The RdP method measure the ability to reduce ferric ions, according to the method of Oyaizu. Ascorbic acid was the reference antioxidant used in this method. The ChP method measured the ability to chelate Fe^2+ ion, following the method of Miguel et al.. EDTA was used as reference antioxidant. The SlEOs were diluted in 100% ethanol in the DPPH, ABTS, RdP and ChP methods, whereas in the ORAC method, SlEOs were diluted in 15% ethanol to obtain a final concentration of 5% ethanol in the reaction medium. All measurements were made at the end-point of the reaction, except in the ORAC method (Figure S5).

[1] = test system: Staphylococcus aureus ATCC 6538; test: Broth microdilution MIC and MBC; format: cell-based
Procedure: (§2) The following test microorganisms used in this work were acquired from Sigma-Aldrich: Pseudomonas aeruginosa ATCC 9027, Escherichia coli ATCC 8739, Staphylococcus aureus ATCC 6538, and Candida albicans ATCC 10231. The stock cultures were preserved in TSB or YPD with 15% glycerol, for bacteria and yeast cells, respectively, at −80 °C. Isolated colonies from an 18- to 24-h agar plate were transferred to MHB for bacteria and RPMI-1640 for C. albicans.
(§3) MIC were determined using the broth microdilution method in 96-well microplates, according to the M07-A10 [69] standard for bacteria and the M27-A3 [70] for Candida. Briefly, two-fold dilutions of a 40 µL/mL SlEOs were prepared to obtain a final concentration range of 0.08–20 µL/mL with 0.5% Tween®80 and 2.5% DMSO. The antimicrobial activities of main compounds were also tested in the concentration range of 0.12–15 mM with 0.5% Tween®80 and 2.5% DMSO as solvent. The final strain concentration was 5 × 10^5 CFU/mL in MHB for the bacteria and 0.5−2.5 × 10^3 in RPMI-1640 for the yeast. These plates were incubated for 24 h for bacteria and 48 h for Candida, both at 35 ± 1 °C, under aerobic conditions on a plate shaker at 100 rpm. Streptomycin (0.06–8.00 µg/mL) and fluconazole (0.13–16 µg/mL) were used as reference antibacterial and antifungal compound, respectively. […] MIC is defined as the lowest concentration of EO or individual compound with no visible growth of microorganisms, at the end of the incubation period. […] All determinations were carried out in triplicate.

[2] = test system: Escherichia coli ATCC 8739; test: Broth microdilution MIC and MBC; format: cell-based
Procedure: as §2, §3

[3] = Reducing power (RdP) method; settings: individual compounds; maximum assay concentration 100 mM
Procedure: as §1

[4] = Oxygen radical absorbance capacity (ORAC) assay; settings: individual compounds, maximum assay concentration 100 mM
Procedure: as §1

LOX = biological target: T1, LOX (Glycine max, UniProt P08170); test: LOX inhibition assay; format: biochemical, Glycine max (soybean); settings: for DI (%) of LOX: at 514.2 µg/mL, could not reach 50% inhibition
T1 construct: purchased Sigma-Aldrich
Procedure: A LOX preparation from Glycine max (soybean) was acquired from Sigma-Aldrich. LOX inhibitory activity was determined as previously reported, based on the absorption at 234 nm of the hydroperoxyde conjugated dienes (ε = 25,000 M^−1 cm^−1), which are generated from the oxidation of linoleic acid in the presence of oxygen and LOX. This assay was carried out on a double beam Lambda 35 spectrophotometer (PerkinElmer, Madrid, Spain) with the UV-Winlab software, at 25 °C.
(§4) The DI in both antienzymatic assays were calculated using Equation (1):(1) DI (%)= ν0−νi/ν0 × 100 where v0 and v1 are the steady state rates without and with inhibitor, respectively. The inhibitions of LOX were reported as DI at 150 µg/mL of each SlEO. […] To calculate the IC50 values, data of DI (%) of seven different concentrations of each SlEO were plotted and fitted by non-linear regression according to Equation (2) using Sigma Plot software (systatsoftware.com) (Figure S6). The inhibitions of LOX and AChE by individual compounds were reported as IC50 or DI, depending on their inhibition capacities and solubilities.
(§5) (2) DI (%)= DImax [I]0/IC50+ [I]0

ABTS radical method = settings: individual compounds; maximum assay concentration 100 mM
Procedure: as §1

[5] = Chelating power (ChP) method; settings: individual compounds; maximum assay concentration 100 mM
Procedure: as §1

[6] = test system: Candida albicans ATCC 10231; test: Broth microdilution MIC and MFC; format: cell-based
Procedure: as §2, §3

AChE VI-S = biological target: T2, AChE VI-S (Electrophorus electricus, UniProt O42275); test: biochemical; settings: for concentration at which 15% inhibition of AChE reached: IC50 not calculable due to low water solubility
T2 construct: purchased Sigma-Aldrich
Procedure: AChE VI-S from Electrophorus electricus was purchased from Sigma-Aldrich. AChE inhibitory activity was measured in triplicate using a 96-well microplate reader at 25 °C, according to Ellman’s method. This enzyme hydrolyzes acetylthiocholine to acetate and thiocholine, which reacts with 5,5-dithio-bis-(2-nitrobenzoic acid) (DTNB) producing a coloured compound with absorbance at 412 nm. The reaction was measured for 10 min at 25 °C, using a 96-well microplate reader. SlEOs were diluted in 15% ethanol, to obtain a final concentration of 5% ethanol in the reaction medium.
as §4, §5

T2 sequence (O42275 24-633): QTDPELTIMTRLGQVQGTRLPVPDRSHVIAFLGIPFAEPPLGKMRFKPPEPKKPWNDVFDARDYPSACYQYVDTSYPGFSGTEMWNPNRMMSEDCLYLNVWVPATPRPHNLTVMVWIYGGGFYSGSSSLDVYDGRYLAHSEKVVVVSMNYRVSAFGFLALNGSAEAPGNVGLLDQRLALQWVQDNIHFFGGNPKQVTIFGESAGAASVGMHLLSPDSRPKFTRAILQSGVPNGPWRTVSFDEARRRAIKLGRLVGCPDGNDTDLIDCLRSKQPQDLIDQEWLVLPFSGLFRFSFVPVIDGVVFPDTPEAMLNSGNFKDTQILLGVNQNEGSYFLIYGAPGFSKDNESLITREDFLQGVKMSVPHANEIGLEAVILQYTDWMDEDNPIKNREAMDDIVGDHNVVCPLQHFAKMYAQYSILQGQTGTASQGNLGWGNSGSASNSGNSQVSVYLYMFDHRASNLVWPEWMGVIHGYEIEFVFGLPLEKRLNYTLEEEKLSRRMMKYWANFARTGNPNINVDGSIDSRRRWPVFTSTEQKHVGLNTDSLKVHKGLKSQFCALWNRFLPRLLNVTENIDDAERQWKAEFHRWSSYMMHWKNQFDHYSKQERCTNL
T1 sequence (P08170 whole entry): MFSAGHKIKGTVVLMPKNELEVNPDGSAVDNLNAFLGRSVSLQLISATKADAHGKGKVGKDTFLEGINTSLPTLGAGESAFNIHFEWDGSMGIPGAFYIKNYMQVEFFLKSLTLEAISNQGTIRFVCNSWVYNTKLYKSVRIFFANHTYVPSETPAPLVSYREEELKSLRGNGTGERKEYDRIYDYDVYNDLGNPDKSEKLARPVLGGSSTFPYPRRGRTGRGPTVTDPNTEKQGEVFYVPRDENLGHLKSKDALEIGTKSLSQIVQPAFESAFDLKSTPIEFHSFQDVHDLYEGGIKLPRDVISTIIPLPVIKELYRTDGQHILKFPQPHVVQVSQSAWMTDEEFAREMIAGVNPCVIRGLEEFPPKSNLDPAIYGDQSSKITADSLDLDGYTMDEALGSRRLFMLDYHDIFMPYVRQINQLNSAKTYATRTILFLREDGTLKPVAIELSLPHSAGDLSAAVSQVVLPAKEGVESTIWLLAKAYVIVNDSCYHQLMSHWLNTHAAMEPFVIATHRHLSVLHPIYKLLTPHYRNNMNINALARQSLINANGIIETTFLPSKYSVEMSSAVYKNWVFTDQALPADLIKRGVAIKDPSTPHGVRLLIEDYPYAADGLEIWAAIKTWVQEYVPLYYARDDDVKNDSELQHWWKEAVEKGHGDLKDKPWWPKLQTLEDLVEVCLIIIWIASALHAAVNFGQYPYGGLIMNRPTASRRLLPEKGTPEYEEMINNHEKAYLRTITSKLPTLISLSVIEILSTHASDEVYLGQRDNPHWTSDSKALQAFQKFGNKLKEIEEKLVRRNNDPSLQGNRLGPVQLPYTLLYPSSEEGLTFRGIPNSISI

Compound	DPPH (DPPH radical method)	MIC ([1]; ATCC6538, 24 h, read-out: MIC)	MBC ([1]; ATCC6538, read-out: MBC)	MIC ([2]; ATCC8739, 24 h, read-out: MIC)	MBC ([2]; ATCC8739, read-out: MBC)	RdP [3]	ORAC [4]	IC50 (LOX)	ABTS (ABTS radical method)	ChP [5]	MIC ([6]; ATCC10231, 48 h, read-out: MIC)	MFC ([6]; ATCC10231, read-out: MFC)	further results
CC12CCC(CC1=O)C2(C)C (centres unmarked) [Camphor]	N/D (Activity lower than 0.05 units at a maximum assay concentration of 100 mM)	> 2300 µg/mL	> 2300 µg/mL	> 2300 µg/mL	> 2300 µg/mL	N/D (Activity lower than 0.05 units at a maximum assay concentration of 100 mM)	N/D (Activity lower than 0.05 units at a maximum assay concentration of 100 mM)	2.74 mM	N/D (Activity lower than 0.05 units at a maximum assay concentration of 100 mM)	N/D (Activity lower than 0.05 units at a maximum assay concentration of 100 mM)	> 2300 µg/mL	> 2300 µg/mL	ORAC ([4]; listed as camphor): did not show any ORAC antioxidant activity
CC1=CCC(O)(C(C)C)CC1 (centres unmarked) [Terpinen-4-ol]	N/D (Activity lower than 0.05 units at a maximum assay concentration of 100 mM)	1100 µg/mL (≈ 7.13 mM)	2300 µg/mL (≈ 14.9 mM)	2300 µg/mL (≈ 14.9 mM)	2300 µg/mL (≈ 14.9 mM)	N/D (Activity lower than 0.05 units at a maximum assay concentration of 100 mM)	356.0 ± 13.6 µmol TE/mmol X	–	0.3 ± 0.0 µmol TE/mmol X	1.7 ± 0.1 µmol EDTAE/mmol X	> 2300 µg/mL	> 2300 µg/mL	DI (%) of LOX (LOX): 29.6 ± 1.0%; concentration at which 15% inhibition of AChE reached (AChE VI-S): 582.4 ± 38.1 µg/mL
CC1=CC[C@@H](C(C)(C)O)CC1 [α-Terpineol]	N/D (Activity lower than 0.05 units at a maximum assay concentration of 100 mM)	600 µg/mL (≈ 3.89 mM)	1100 µg/mL (≈ 7.13 mM)	2400 µg/mL (≈ 15.6 mM)	2400 µg/mL (≈ 15.6 mM)	N/D (Activity lower than 0.05 units at a maximum assay concentration of 100 mM)	310.0 ± 16.6 µmol TE/mmol X	–	0.2 ± 0.0 µmol TE/mmol X	4.9 ± 0.3 µmol EDTAE/mmol X	> 2400 µg/mL	> 2400 µg/mL	DI (%) of LOX (LOX): 17.4 ± 0.2%
CC1=CCC2CC1C2(C)C (stereo not drawn) [α-Pinene]	N/D (Activity lower than 0.05 units at a maximum assay concentration of 100 mM)	2100 µg/mL (≈ 15.4 mM)	> 2100 µg/mL	500 µg/mL (≈ 3.67 mM)	1000 µg/mL (≈ 7.34 mM)	N/D (Activity lower than 0.05 units at a maximum assay concentration of 100 mM)	N/D (Activity lower than 0.05 units at a maximum assay concentration of 100 mM)	–	N/D (Activity lower than 0.05 units at a maximum assay concentration of 100 mM)	16.6 ± 1.1 µmol EDTAE/mmol X	500 µg/mL (≈ 3.67 mM)	500 µg/mL (≈ 3.67 mM)	IC50 (AChE VI-S): 3.27 mM
CC(=O)OC1CC2CCC1(C)C2(C)C (centres unmarked) [Bornyl acetate]	N/D (Activity lower than 0.05 units at a maximum assay concentration of 100 mM)	2900 µg/mL	> 2900 µg/mL	> 2900 µg/mL	> 2900 µg/mL	N/D (Activity lower than 0.05 units at a maximum assay concentration of 100 mM)	N/D (Activity lower than 0.05 units at a maximum assay concentration of 100 mM)	0.38 mM	N/D (Activity lower than 0.05 units at a maximum assay concentration of 100 mM)	N/D (Activity lower than 0.05 units at a maximum assay concentration of 100 mM)	> 2900 µg/mL	> 2900 µg/mL	–
C=CC(C)(O)CCC=C(C)C (centres unmarked) [Linalool]	N/D (Activity lower than 0.05 units at a maximum assay concentration of 100 mM)	600 µg/mL (≈ 3.89 mM)	1100 µg/mL (≈ 7.13 mM)	1100 µg/mL (≈ 7.13 mM)	2300 µg/mL (≈ 14.9 mM)	N/D (Activity lower than 0.05 units at a maximum assay concentration of 100 mM)	341.9 ± 18.5 µmol TE/mmol X	3.35 mM	0.1 ± 0.0 µmol TE/mmol X	96.9 ± 5.8 µmol EDTAE/mmol X	2300 µg/mL (≈ 14.9 mM)	2300 µg/mL (≈ 14.9 mM)	–
C=C1C2CCC(C2)C1(C)C (centres unmarked) [Camphene]	N/D (Activity lower than 0.05 units at a maximum assay concentration of 100 mM)	–	–	–	–	0.5 ± 0.0 µmol AAE/mmol X	N/D (Activity lower than 0.05 units at a maximum assay concentration of 100 mM)	–	0.1 ± 0.0 µmol TE/mmol X	1.6 ± 0.1 µmol EDTAE/mmol X	–	–	MBC ([1]; ATCC6538): > 2000 µg/mL; MIC ([1]; ATCC6538, 24 h): > 2000 µg/mL; MBC ([2]; ATCC8739): > 2000 µg/mL; MIC ([2]; ATCC8739, 24 h): > 2000 µg/mL; concentration at which 15% inhibition of AChE reached (AChE VI-S): 42.4 ± 3.7 µg/mL; MFC ([6]; ATCC10231): > 2000 µg/mL; MIC ([6]; ATCC10231, 48 h): > 2000 µg/mL
C=C(C)[C@H]1CC=C(C)CC1 [Limonene]	N/D (Activity lower than 0.05 units at a maximum assay concentration of 100 mM)	–	–	–	–	N/D (Activity lower than 0.05 units at a maximum assay concentration of 100 mM)	128.0 ± 10.8 µmol TE/mmol X	–	0.6 ± 0.0 µmol TE/mmol X	5.9 ± 0.4 µmol EDTAE/mmol X	–	–	MBC [1]: 300 µg/mL (≈ 2.2 mM); MIC ([1]; 24 h): 300 µg/mL (≈ 2.2 mM); MBC [2]: 2000 µg/mL (≈ 14.7 mM); MIC ([2]; 24 h): 2000 µg/mL (≈ 14.7 mM); IC50LOX (LOX): 116.1 ± 3.3 µg/mL (≈ 0.852 mM); MFC [6]: 1000 µg/mL (≈ 7.34 mM); MIC ([6]; 48 h): 1000 µg/mL (≈ 7.34 mM)
